Molecular target: hNav1.7 (Homo sapiens (Human), UniProt Q15858)
Assay: Tritiated sulfonamide competitive binding to membranes from cells expressing hNav1.7 and the β1 subunit;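 also: Filter-bound radioactivity counted by liquid scintillation, nonspecific binding defined with excess unlabelled ligand, IC50 fitted to percent inhibition of specific binding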
Details: read-out: Ligand Binding Assay; 100 pM [3H]compound, membranes with hNav1.7 and β1 subunit, 18 h, room temperature

Sequence of hNav1.7 (Q15858 other isoform, or with tags, fused parts or gaps): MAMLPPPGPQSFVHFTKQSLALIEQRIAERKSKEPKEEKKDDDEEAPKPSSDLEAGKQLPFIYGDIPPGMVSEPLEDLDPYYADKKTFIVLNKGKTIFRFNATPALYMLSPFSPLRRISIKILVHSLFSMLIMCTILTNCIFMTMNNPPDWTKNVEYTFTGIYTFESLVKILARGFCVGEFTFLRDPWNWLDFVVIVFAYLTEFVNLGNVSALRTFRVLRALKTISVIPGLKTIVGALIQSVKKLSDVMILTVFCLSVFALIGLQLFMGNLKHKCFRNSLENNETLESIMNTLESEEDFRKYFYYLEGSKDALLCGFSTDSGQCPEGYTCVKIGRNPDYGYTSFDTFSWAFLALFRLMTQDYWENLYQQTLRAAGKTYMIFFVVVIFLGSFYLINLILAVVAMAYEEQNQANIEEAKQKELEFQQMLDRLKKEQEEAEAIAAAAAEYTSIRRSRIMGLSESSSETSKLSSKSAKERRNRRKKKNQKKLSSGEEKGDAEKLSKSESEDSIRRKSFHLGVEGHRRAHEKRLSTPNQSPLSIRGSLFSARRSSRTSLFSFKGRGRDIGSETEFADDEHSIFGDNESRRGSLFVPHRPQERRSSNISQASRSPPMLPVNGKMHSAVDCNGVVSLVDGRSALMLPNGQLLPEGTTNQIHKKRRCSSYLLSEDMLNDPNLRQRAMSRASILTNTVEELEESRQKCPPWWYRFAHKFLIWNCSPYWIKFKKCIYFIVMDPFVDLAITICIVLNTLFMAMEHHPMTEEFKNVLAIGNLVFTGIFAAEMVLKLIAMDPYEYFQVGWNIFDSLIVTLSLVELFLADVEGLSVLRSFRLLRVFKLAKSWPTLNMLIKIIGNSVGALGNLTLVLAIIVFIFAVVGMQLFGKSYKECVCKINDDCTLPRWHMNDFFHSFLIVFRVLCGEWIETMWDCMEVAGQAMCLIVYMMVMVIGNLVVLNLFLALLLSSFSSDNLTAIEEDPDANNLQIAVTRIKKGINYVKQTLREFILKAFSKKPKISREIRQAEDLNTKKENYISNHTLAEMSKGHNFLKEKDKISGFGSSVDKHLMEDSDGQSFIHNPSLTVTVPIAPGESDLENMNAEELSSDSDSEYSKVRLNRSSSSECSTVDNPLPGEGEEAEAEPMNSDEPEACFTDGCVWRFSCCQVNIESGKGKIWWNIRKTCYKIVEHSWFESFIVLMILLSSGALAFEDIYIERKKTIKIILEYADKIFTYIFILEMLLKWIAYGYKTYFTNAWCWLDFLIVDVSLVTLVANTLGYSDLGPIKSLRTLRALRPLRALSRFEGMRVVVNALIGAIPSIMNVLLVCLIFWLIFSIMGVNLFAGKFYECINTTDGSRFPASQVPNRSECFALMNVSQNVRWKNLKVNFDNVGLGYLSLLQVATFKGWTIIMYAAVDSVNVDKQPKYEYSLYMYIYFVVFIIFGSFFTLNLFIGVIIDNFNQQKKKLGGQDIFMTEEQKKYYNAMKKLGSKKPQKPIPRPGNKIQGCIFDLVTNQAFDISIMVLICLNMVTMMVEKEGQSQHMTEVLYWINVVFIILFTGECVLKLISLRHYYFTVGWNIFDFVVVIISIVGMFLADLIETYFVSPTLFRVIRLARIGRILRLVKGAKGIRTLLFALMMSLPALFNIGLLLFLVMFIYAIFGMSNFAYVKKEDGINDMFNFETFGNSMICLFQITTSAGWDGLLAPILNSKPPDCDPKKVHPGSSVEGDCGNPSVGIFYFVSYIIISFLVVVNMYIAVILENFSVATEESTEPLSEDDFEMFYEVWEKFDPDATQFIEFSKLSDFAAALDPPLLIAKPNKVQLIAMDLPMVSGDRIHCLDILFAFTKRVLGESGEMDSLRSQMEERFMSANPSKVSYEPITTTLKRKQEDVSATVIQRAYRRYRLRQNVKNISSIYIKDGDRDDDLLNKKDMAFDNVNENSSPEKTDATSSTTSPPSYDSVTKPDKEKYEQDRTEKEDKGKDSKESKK
Sequence of hNav1.7 (Q07699 19-218 partner): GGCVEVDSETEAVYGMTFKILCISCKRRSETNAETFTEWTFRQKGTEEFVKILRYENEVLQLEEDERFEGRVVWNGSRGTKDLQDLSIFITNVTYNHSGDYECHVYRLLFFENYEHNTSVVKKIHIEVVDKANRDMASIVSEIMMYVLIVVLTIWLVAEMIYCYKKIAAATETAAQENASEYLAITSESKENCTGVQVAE

| Compound | IC50 [nM] |
| --- | --- |
| C[C@H](c1ccc(Cl)cc1Cl)N1CCC(COc2cc(F)c(C(=O)NS(C)(=O)=O)cc2C2CC2)CC1 [Example 239, (R)-5-cyclopropyl-4-((1-(1-(2,4-dichlorophenyl)ethyl)piperidin-4-yl)methoxy)-2-fluoro-N-(methylsulfonyl)benzamide] | 3.4 |
| CC[C@H](c1cc(Cl)cc(Cl)c1)N1CCC(COc2cc(F)c(C(=O)NS(C)(=O)=O)cc2C2CC2)CC1 [Example 240, (R)-5-cyclopropyl-4-((1-(1-(3,5-dichlorophenyl)propyl)piperidin-4-yl)methoxy)-2-fluoro-N-(methylsulfonyl)benzamide] | 2.4 |
| CC[C@@H](c1cc(Cl)cc(Cl)c1)N1CCC(COc2cc(F)c(C(=O)NS(C)(=O)=O)cc2C2CC2)CC1 [Example 241, (S)-5-cyclopropyl-4-((1-(1-(3,5-dichlorophenyl)propyl)piperidin-4-yl)methoxy)-2-fluoro-N-(methylsulfonyl)benzamide] | 2.7 |
| CS(=O)(=O)NC(=O)c1cc(C2CC2)c(OCC2CCN(Cc3cc(Cl)cc(Cl)c3F)CC2)cc1F [Example 242, 5-Cyclopropyl-4-((1-(3,5-dichloro-2-fluorobenzyl)piperidin-4-yl)methoxy)-2-fluoro-N-(methylsulfonyl)benzamide] | 3 |
| C[C@@H](c1ccc(F)cc1Cl)N1CCC(COc2cc(F)c(C(=O)NS(C)(=O)=O)cc2C2CC2)CC1 [Example 243] | 11 |
| C[C@H](c1ccc(F)cc1Cl)N1CCC(COc2cc(F)c(C(=O)NS(C)(=O)=O)cc2C2CC2)CC1 [Example 244] | 12 |
| CS(=O)(=O)NC(=O)c1cc(C2CC2)c(OCC2CCN(Cc3ccc(C(F)(F)F)c(F)c3)CC2)cc1F [Example 247, 5-cyclopropyl-2-fluoro-4-((1-(3-fluoro-4-(trifluoromethyl)benzyl)piperidin-4-yl)methoxy)-N-(methylsulfonyl)benzamide] | 8.9 |
| CS(=O)(=O)NC(=O)c1cc(C2CC2)c(OCC2CCN(CC3(C(F)(F)F)CC3)CC2)cc1F [Example 252, 5-cyclopropyl-2-fluoro-N-(methylsulfonyl)-4-((1-((1-(trifluoromethyl)cyclopropyl)methyl)piperidin-4-yl)methoxy)benzamide] | 50 |
| CS(=O)(=O)NC(=O)c1cc(C2CC2)c(OCC2CCN(C(=O)c3cc(Cl)cc(Cl)c3)CC2)cc1F [Example 253, 5-Cyclopropyl-4-((1-(3,5-dichlorobenzoyl)piperidin-4-yl)methoxy)-2-fluoro-N-(methylsulfonyl)benzamide] | 20 |
| O=C(NS(=O)(=O)C1CC1)c1cc(C2CC2)c(OCC2CCN(C(=O)c3cc(Cl)cc(Cl)c3)CC2)cc1F [Example 254, 5-Cyclopropyl-N-(cyclopropylsulfonyl)-4-((1-(3,5-dichlorobenzoyl)piperidin-4-yl)methoxy)-2-fluorobenzamide] | 26 |
| CS(=O)(=O)NC(=O)c1cc(C2CC2)c(OCC2CCN(C(=O)c3ccccc3C(F)(F)F)CC2)cc1F [Example 255] | 1100 |
| O=C(NS(=O)(=O)C1CC1)c1cc(C2CC2)c(OCC2CCN(C(=O)c3ccccc3C(F)(F)F)CC2)cc1F [Example 256, 5-Cyclopropyl-N-(cyclopropylsulfonyl)-2-fluoro-4-((1-(2-(trifluoromethyl)benzoyl)piperidin-4-yl)methoxy)benzamide] | 290 |
| CS(=O)(=O)NC(=O)c1cc(C2CC2)c(OCC2CCN(C(=O)c3ccc(Cl)cc3Cl)CC2)cc1F [Example 257, 5-Cyclopropyl-4-((1-(2,4-dichlorobenzoyl)piperidin-4-yl)methoxy)-2-fluoro-N-(methylsulfonyl)benzamide] | 270 |
| O=C(NS(=O)(=O)C1CC1)c1cc(C2CC2)c(OCC2CCN(C(=O)c3ccc(Cl)cc3Cl)CC2)cc1F [Example 258, 5-Cyclopropyl-N-(cyclopropylsulfonyl)-4-((1-(2,4-dichlorobenzoyl)piperidin-4-yl)methoxy)-2-fluorobenzamide] | 65 |

Reference: US9546164B2 (GENENTECH, INC., priority 2013, dated 2017)
